Results: ChEMBL document CHEMBL5370627, “Novel Indazole Compounds as TEAD Inhibitors for Treating Cancer” (ACS Med Chem Lett, 2023)
pIC50: −log10 of the molar value.

Legend:
[1] = molecular target: Transcriptional enhancer factor TEF-5 (Homo sapiens, UniProt Q99594); experiment: Inhibition of His-tagged TEAD3 (unknown origin) preincubated for 0.5 to 4 hrs followed by biotinylated lipid pocket probe addition and measured after 60 min by TR-FRET assay
[2] = molecular target: Transcriptional enhancer factor TEF-3 (Homo sapiens, UniProt Q15561); experiment: Inhibition of His-tagged TEAD4 (unknown origin) preincubated for 0.5 to 4 hrs followed by biotinylated lipid pocket probe addition and measured after 60 min by TR-FRET assay
[3] = molecular target: Transcriptional enhancer factor TEF-4 (Homo sapiens, UniProt Q15562); experiment: Inhibition of His-tagged TEAD2 (unknown origin) preincubated for 0.5 to 4 hrs followed by biotinylated lipid pocket probe addition and measured after 60 min by TR-FRET assay
[4] = molecular target: Transcriptional enhancer factor TEF-1 (Homo sapiens, UniProt P28347); experiment: Inhibition of His-tagged TEAD1 (unknown origin) preincubated for 0.5 to 4 hrs followed by biotinylated lipid pocket probe addition and measured after 60 min by TR-FRET assay
Transcriptional enhancer factor TEF-1, sequence (P28347 whole entry): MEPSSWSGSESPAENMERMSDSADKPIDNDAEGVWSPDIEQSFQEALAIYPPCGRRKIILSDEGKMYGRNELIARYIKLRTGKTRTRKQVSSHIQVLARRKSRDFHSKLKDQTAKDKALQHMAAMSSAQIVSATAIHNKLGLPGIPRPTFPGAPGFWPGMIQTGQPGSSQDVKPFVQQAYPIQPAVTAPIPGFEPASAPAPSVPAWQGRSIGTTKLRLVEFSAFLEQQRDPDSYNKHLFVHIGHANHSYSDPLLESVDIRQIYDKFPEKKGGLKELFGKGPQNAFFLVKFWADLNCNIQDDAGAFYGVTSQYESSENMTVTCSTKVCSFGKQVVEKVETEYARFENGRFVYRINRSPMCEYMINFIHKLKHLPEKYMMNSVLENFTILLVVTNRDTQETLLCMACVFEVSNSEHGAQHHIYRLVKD

Transcriptional enhancer factor TEF-3, sequence (Q15561 whole entry): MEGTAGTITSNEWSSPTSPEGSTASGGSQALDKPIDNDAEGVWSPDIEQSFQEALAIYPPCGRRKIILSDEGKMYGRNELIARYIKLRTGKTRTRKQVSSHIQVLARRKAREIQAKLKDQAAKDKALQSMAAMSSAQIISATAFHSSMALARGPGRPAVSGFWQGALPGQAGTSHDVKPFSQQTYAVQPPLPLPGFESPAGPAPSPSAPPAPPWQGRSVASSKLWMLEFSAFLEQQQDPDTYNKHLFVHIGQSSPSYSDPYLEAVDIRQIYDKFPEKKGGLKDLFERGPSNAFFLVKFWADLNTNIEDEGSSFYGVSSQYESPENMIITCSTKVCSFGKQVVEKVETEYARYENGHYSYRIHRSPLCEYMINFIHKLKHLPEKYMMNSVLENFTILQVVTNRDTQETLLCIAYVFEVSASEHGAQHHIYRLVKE
Transcriptional enhancer factor TEF-5, sequence (Q99594 whole entry): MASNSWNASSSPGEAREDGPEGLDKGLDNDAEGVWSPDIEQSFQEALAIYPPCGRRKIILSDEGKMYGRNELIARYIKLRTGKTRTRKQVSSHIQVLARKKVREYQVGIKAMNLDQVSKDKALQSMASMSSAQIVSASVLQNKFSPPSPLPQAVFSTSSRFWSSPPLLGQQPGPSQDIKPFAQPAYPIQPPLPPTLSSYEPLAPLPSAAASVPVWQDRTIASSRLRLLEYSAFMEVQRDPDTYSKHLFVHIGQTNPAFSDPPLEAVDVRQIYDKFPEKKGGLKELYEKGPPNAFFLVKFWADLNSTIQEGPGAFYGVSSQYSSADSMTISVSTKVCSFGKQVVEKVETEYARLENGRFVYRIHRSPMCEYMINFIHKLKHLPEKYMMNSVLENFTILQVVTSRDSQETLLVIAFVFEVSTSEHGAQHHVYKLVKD
Transcriptional enhancer factor TEF-4, sequence (Q15562 whole entry): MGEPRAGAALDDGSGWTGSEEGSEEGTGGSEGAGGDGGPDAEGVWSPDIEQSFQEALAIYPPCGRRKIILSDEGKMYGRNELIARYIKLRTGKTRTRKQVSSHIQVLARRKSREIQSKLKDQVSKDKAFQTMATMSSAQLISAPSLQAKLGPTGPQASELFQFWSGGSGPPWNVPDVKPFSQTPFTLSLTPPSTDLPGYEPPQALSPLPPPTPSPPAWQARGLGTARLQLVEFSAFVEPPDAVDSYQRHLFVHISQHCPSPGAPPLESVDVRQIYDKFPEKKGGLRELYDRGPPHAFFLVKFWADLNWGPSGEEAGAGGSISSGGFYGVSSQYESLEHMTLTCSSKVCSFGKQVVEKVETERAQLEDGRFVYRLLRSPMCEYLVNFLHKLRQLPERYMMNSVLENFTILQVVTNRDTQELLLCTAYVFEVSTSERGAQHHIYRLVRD

| pIC50 [1] | pIC50 [2] | pIC50 [3] | pIC50 [4] | Structure (SMILES) |
| --- | --- | --- | --- | --- |
| 8.30 | 8.05 | 8.70 | 8.40 | C#Cc1ccnc2c1c(C1CN(C(=O)C=C)C1)nn2-c1ccc(OC(F)(F)F)cc1 |
| – | 8.52 | – | 8.10 | O=C(/C=C/CO)N1CC(c2nn(-c3ccc(OC(F)(F)F)cc3)c3nccc(Cl)c23)C1 |
